For one assay, the species on record is Oryctolagus cuniculus. In words: Anti-platelet activity was measured by studying their antagonist effects on rabbit platelets aggregated with U-46,619. Format: functional.
The next assay is filed under the species Homo sapiens. In words: Anti-platelet activity was measured by studying their antagonist effects on human platelets aggregated with collagen. The format is functional.

By IC50 is commonly meant the concentration at which inhibition is half-maximal.

Regarding `CCCCCC(=O)c1cccc(/C=C\CCCC(=O)O)c1`, the results for the IC50 in the assay listed under Oryctolagus cuniculus and in the assay filed under Homo sapiens were 0.5 µM and 7 µM, respectively. On to `O=C(O)CCn1c2c(c3ccccc31)CC(NS(=O)(=O)c1ccc(F)cc1)CC2` (single isomer, unassigned) [RAMATROBAN], for which the midpoint of inhibition in the assay filed under Homo sapiens, the IC50, lay at 0.05 µM. As for `CCCCCC(O)c1cccc(/C=C\CCCC(=O)O)n1` (stereo not given), the half-inhibitory concentration (IC50) in the assay filed under Oryctolagus cuniculus is 1.6 µM; in the assay listed under Homo sapiens, 57 µM. As for `CCCCC/C=C\C[C@@H](O)/C=C/C=C\C/C=C\CCCC(=O)O`, the IC50 in the assay filed under Oryctolagus cuniculus was 4 µM. With `CCCCCC(O)c1cccc(/C=C\CCCC(=O)O)c1` (stereo not given), the 50% inhibitory concentration (IC50) in the assay listed under Oryctolagus cuniculus is 0.9 µM; in the assay listed under Homo sapiens it was 20 µM. The matching figures for `CCCCCC(O)c1cccc(CCCCCC(=O)O)c1` (stereo not given): 0.5 µM and 27 µM.

Values taken from ChEMBL document CHEMBL1136030, “Synthesis and antiaggregant properties of Stabilized analogues of polyunsaturated fatty acid metabolites” (Bioorg Med Chem Lett, 2002).
